In US20220033397A1, “PHARMACEUTICAL COMPOUNDS AND THEIR USE AS INHIBITORS OF UBIQUITIN SPECIFIC PROTEASE 19 (USP19)” (ALMAC DISCOVERY LIMITED, priority 2018, published 2022) one finds IC50 data, which are given here for 23 molecules.

Molecules are shown by their SMILES. Where only a bound is given, the exact number is not on record here.

For this experiment, the target named is T1, Full-length USP19 (Homo sapiens, UniProt O94966).
T1 construct: Full-length USP19 was purchased from Boston Biochem (E-576); purchased Boston Biochem E-576
T1 sequence (O94966 1-1318): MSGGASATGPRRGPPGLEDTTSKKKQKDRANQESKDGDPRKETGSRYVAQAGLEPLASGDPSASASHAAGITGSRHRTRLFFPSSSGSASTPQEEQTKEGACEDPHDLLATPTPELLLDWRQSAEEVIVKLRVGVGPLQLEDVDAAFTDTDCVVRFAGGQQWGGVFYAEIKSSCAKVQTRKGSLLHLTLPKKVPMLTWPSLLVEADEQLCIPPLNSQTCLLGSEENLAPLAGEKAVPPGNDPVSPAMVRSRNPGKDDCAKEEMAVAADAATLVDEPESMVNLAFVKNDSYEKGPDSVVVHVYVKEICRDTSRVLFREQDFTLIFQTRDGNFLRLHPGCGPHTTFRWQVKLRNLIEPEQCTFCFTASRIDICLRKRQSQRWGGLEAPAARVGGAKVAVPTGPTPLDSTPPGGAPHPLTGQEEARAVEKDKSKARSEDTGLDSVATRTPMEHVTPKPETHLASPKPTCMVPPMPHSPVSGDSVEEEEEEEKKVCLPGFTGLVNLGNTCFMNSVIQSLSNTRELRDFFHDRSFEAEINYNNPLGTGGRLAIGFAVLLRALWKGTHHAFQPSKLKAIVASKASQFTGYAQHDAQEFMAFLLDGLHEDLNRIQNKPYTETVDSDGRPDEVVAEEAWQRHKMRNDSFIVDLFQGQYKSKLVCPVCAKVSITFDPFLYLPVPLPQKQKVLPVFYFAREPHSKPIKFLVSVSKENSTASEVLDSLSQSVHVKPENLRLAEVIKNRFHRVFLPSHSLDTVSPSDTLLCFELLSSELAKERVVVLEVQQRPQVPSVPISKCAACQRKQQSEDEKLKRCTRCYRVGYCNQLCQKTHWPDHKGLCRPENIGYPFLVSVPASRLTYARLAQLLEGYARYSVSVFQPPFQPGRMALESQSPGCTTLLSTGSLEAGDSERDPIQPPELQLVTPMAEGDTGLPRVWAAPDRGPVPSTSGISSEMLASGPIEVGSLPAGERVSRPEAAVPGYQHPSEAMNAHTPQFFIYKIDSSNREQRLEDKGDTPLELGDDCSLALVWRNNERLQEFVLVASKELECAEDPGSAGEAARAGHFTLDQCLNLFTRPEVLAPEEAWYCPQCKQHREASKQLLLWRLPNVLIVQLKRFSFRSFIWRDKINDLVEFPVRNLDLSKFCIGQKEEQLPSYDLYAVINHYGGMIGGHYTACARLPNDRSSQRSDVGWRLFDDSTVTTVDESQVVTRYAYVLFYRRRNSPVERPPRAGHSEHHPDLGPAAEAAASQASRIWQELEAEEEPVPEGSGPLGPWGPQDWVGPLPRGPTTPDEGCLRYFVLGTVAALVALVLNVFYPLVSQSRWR
As to the kind of experiment: USP19 fluorescence polarisation (FP) homogeneous assay with Ubiquitin-Lys-TAMRA substrate. Type of experiment: biochemical. To be noted: 2.5 nM USP19, 30 min pre-incubation, average of at least two duplicate experiments. A digest of the protocol: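 Full-length USP19 preincubated 30 min at RT with inhibitor (200 μM to 2 μM series, 8–18 points) before adding 500 nM Ubiquitin-Lys-TAMRA substrate.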
Take `CC1(C)CN(C(=O)N2CCNC[C@H]2c2ccccc2)CC[C@@]1(O)Cn1ccc(-c2ccccc2)cc1=O` [Example 288, 1-(((S)-4-Hydroxy-3,3-dimethyl-1-((R)-2-phenylpiperazine-1-carbonyl)piperidin-4-yl)methyl)-4-phenylpyridin-2(1H)-one]: the IC50 (as a rule, the concentration at which inhibition is half-maximal) is below 0.5 µM.
Regarding `O=C(NCC(F)(F)F)N1CCC(O)(Cn2cnc(-c3ccccc3)cc2=O)C2(CCCC2)C1` (centres unmarked) [Example 196, 10-Hydroxy-10-((6-oxo-4-phenylpyrimidin-1(6H)-yl)methyl)-N-(2,2,2-trifluoroethyl)-7-azaspiro[4.5]decane-7-carboxamide], the IC50 was 5 to 50 µM.
Under `O=C1CN(C(=O)N2CC[C@@](O)(Cn3cnc(-c4ccccc4)cc3=O)C3(CCCC3)C2)[C@H](c2ccccc2)CN1` [Example 372, 3-(((S)-10-Hydroxy-7-((R)-5-oxo-2-phenylpiperazine-1-carbonyl)-7-azaspiro[4.5]decan-10-yl)methyl)-6-phenylpyrimidin-4(3H)-one] stands below 0.5 µM.
Consider `O=C(N1CC[C@@](O)(Cn2cnc(-c3ccccc3)cc2=O)C2(CCCC2)C1)N1CCNC[C@H]1c1cccc(F)c1` [Example 320, 3-(((S)-7-((R)-2-(3-Fluorophenyl)piperazine-1-carbonyl)-10-hydroxy-7-azaspiro[4.5]decan-10-yl)methyl)-6-phenylpyrimidin-4(3H)-one], for which the IC50 is below 0.5 µM.
For the molecule `CC(C1CC1)N(C)C(=O)N1CCC(O)(Cn2cnc(-c3ccccc3)cc2=O)C2(CCCC2)C1` (centres unmarked) [Example 247, N-(1-Cyclopropylethyl)-10-hydroxy-N-methyl-10-((6-oxo-4-phenylpyrimidin-1(6H)-yl)methyl)-7-azaspiro[4.5]decane-7-carboxamide], the IC50 lay within 5 to 50 µM.
Turning to `C[C@H](CC(F)(F)F)C(=O)N1CCC(O)(Cn2cnc3cc(F)ccc3c2=O)C2(CCCC2)C1` (stereo partly drawn) [Example 156, 7-Fluoro-3-((10-hydroxy-7-((R)-4,4,4-trifluoro-2-methylbutanoyl)-7-azaspiro[4.5]decan-10-yl)methyl)quinazolin-4(3H)-one], the IC50 was 5 to 50 µM.
Under `O=C(N1CC[C@@](O)(Cn2cnc(Cl)cc2=O)C2(CCCC2)C1)N1CCOC[C@H]1c1ccccc1` [Example 220, 6-Chloro-3-(((S)-10-hydroxy-7-((R)-3-phenylmorpholine-4-carbonyl)-7-azaspiro[4.5]decan-10-yl)methyl)pyrimidin-4(3H)-one] stands below 0.5 µM.
In the case of `O=C(N1CC[C@@](O)(Cn2cnc(C3CC3)cc2=O)C2(CCCC2)C1)N1CCNC[C@H]1c1ccccc1` [Example 292, 6-Cyclopropyl-3-(((S)-10-hydroxy-7-((R)-2-phenylpiperazine-1-carbonyl)-7-azaspiro[4.5]decan-10-yl)methyl)pyrimidin-4(3H)-one], the IC50 was below 0.5 µM.
Take `C[C@@H]1CNCCN1C(=O)N1CCC(O)(Cn2cnc(-c3ccccc3)cc2=O)C2(CCCC2)C1` (stereo partly drawn) [Example 207, 3-((10-Hydroxy-7-((R)-2-methylpiperazine-1-carbonyl)-7-azaspiro[4.5]decan-10-yl)methyl)-6-phenylpyrimidin-4(3H)-one]: the IC50 is 50 to 250 µM.
Under `CN(C)C(=O)C1CN(C[C@]2(O)CCN(C(=O)[C@H](CO)CC3CCCCC3)CC2(C)C)C(=O)CC1c1ccccc1` (stereo partly drawn) [Example 26, 1-(((S)-1-((S)-3-Cyclohexyl-2-(hydroxymethyl)propanoyl)-4-hydroxy-3,3-dimethylpiperidin-4-yl)methyl)-N,N-dimethyl-6-oxo-4-phenylpiperidine-3-carboxamide] stands below 0.5 µM; under `C[C@H](CC1CCCCC1)C(=O)N1CCC(O)(CN2CC(CO)CC2=O)C2(CCCC2)C1` (stereo partly drawn) [Example 34, 1-((7-((R)-3-Cyclohexyl-2-methylpropanoyl)-10-hydroxy-7-azaspiro[4.5]decan-10-yl)methyl)-4-(hydroxymethyl)pyrrolidin-2-one], 5 to 50 µM.
`C[C@H](CC1CCCCC1)C(=O)N1CCC(O)(Cn2cc(-n3cccn3)ncc2=O)C(C)(C)C1` (stereo partly drawn) [Example 18, 1-((1-((R)-3-Cyclohexyl-2-methylpropanoyl)-4-hydroxy-3,3-dimethylpiperidin-4-yl)methyl)-5-(1H-pyrazol-1-yl)pyrazin-2(1H)-one]: the IC50 fell in the range of 0.5 to 5 µM.
Regarding `C[C@H](CC1CCCCC1)C(=O)N1CCC(O)(Cn2cc(N=S(C)(C)=O)c(Cl)cc2=O)C2(CCCC2)C1` (stereo partly drawn) [Example 69, 4-Chloro-1-((7-((R)-3-cyclohexyl-2-methylpropanoyl)-10-hydroxy-7-azaspiro[4.5]decan-10-yl)methyl)-5-((dimethyl(oxo)-λ^6-sulfaneylidene)amino)pyridin-2(1H)-one], the IC50 lay within 0.5 to 5 µM.
Regarding `C[C@H](CC(F)(F)F)C(=O)N1CCC(O)(Cn2ccc3ccncc3c2=O)C2(CCCC2)C1` (stereo partly drawn) [Example 136, 2-((10-Hydroxy-7-((R)-4,4,4-trifluoro-2-methylbutanoyl)-7-azaspiro[4.5]decan-10-yl)methyl)-2,7-naphthyridin-1(2H)-one], the IC50 is 5 to 50 µM.
Turning to `O=C(NCC1=CCCOC1)N1CCC(O)(Cn2cnc(-c3ccccc3)cc2=O)C2(CCCC2)C1` (centres unmarked) [Example 259, N-((5,6-Dihydro-2H-pyran-3-yl)methyl)-10-hydroxy-10-((6-oxo-4-phenylpyrimidin-1(6H)-yl)methyl)-7-azaspiro[4.5]decane-7-carboxamide], the IC50 fell in the range of 5 to 50 µM.
To `CCC1CCN(CC2(O)CCN(C(=O)[C@H](C)CC(F)(F)F)CC23CCCC3)C(=O)C1` (stereo partly drawn) [Example 100, 4-Ethyl-1-((10-hydroxy-7-((R)-4,4,4-trifluoro-2-methylbutanoyl)-7-azaspiro[4.5]decan-10-yl)methyl)piperidin-2-one] belongs 5 to 50 µM; to `O=C(N1CCC(O)(Cn2cnc3ccc(F)cc3c2=O)C2(CCCC2)C1)N1CCOC[C@H]1c1ccccc1` (stereo partly drawn) [Example 164, 6-Fluoro-3-((10-Hydroxy-7-((R)-3-phenylmorpholine-4-carbonyl)-7-azaspiro[4.5]decan-10-yl)methyl)quinazolin-4(3H)-one], below 0.5 µM.
As to `C[C@H](CC(F)(F)F)C(=O)N1CCC(O)(CN2Cc3cnccc3C2=O)C2(CCCC2)C1` (stereo partly drawn) [Example 106, 2-((10-Hydroxy-7-((R)-4,4,4-trifluoro-2-methylbutanoyl)-7-azaspiro[4.5]decan-10-yl)methyl)-2,3-dihydro-1H-pyrrolo[3,4-c]pyridin-1-one], the IC50 fell in the range of 50 to 250 µM.
In the case of `O=C(N1CC[C@@](O)(Cn2cnc(-c3cccs3)cc2=O)C2(CCCC2)C1)N1CCNC[C@H]1c1ccccc1` [Example 343, 3-(((S)-10-Hydroxy-7-((R)-2-phenylpiperazine-1-carbonyl)-7-azaspiro[4.5]decan-10-yl)methyl)-6-(thiophen-2-yl)pyri-midin-4(3H)-one], the IC50 is below 0.5 µM.
Consider `O=C(N1CCC(O)(Cn2cnc3c(cnn3-c3ccccc3)c2=O)C2(CCCC2)C1)N1CCNC[C@H]1c1ccccc1` (stereo partly drawn) [Example 178, 5-((10-Hydroxy-7-((R)-2-phenylpiperazine-1-carbonyl)-7-azaspiro[4.5]decan-10-yl)methyl)-1-phenyl-1,5-dihydro-4H-pyrazolo[3,4-d]pyrimidin-4-one], for which the IC50 is below 0.5 µM.
Turning to `O=C(N1CC[C@@](O)(Cn2cnc(-c3ccccc3OC(F)(F)F)cc2=O)C2(CCCC2)C1)N1CCNC[C@H]1c1ccccc1` [Example 354, 3-(((S)-10-Hydroxy-7-((R)-2-phenylpiperazine-1-carbonyl)-7-azaspiro[4.5]decan-10-yl)methyl)-6-(2-(trifluorometh-oxy)phenyl) pyrimidin-4(3H)-one], the IC50 was below 0.5 µM.
Regarding `CC1CC(=O)N(CC2(O)CCN(C(=O)[C@H](C)CC(F)(F)F)CC23CCCC3)CC(C)C1` (stereo partly drawn) [Example 99, 1-((10-Hydroxy-7-((R)-4,4,4-trifluoro-2-methylbutanoyl)-7-azaspiro[4.5]decan-10-yl)methyl)-4,6-dimethylazepan-2-one], the IC50 was 5 to 50 µM.
To `C[C@H](CC(F)(F)F)C(=O)N1CCC(O)(Cn2cnc3cc(Cl)ccc3c2=O)C2(CCCC2)C1` (stereo partly drawn) [Example 134, 7-Chloro-3-((10-hydroxy-7-((R)-4,4,4-trifluoro-2-methylbutanoyl)-7-azaspiro[4.5]decan-10-yl)methyl)quinazolin-4(3H)-one] belongs 5 to 50 µM.
